The text below walks through data of patent publication US7915291B2, “Hepatitis C virus inhibitors” (Bristol-Myers Squibb Company, priority 2002, dated 2011).

The structures appear in SMILES notation.

The first experiment has as its target HCV NS3/4A protease complex, BMS strain (UniProt P27958, C1454S/C1711G, species not given/STRAIN_BMS). The experiment can be described thus: Recombinant HCV NS3/4A protease complex FRET peptide assay (BMS strain). It counts as biochemical, HCV genotype 1a. The conditions noted are these: NS3/4A BMS strain; read-out: IC50 range. The text has this: Recombinant HCV NS3/4A Protease Complex FRET Peptide Assay
The purpose of this in vitro assay was to measure the inhibition of HCV NS3 protease complexes, derived from the BMS, H77C or J416S strains, as described below, by compounds of the present invention.
Serum from an HCV-infected patient was obtained from Dr. T. Wright, San Francisco Hospital. An engineered full-length cDNA (compliment deoxyribonucleic acid) template of the HCV genome (BMS strain) was constructed from DNA fragments obtained by reverse transcription-PCR(RT-PCR) of serum RNA (ribonucleic acid) and using primers selected on the basis of homology between other genotype 1a strains.
The BMS, H77C and J4L6S strains were used for production of recombinant NS3/4A protease complexes. […] Briefly, a three-lysine solubilizing tail was added at the 3′-end of the NS4A coding region. […] Briefly, NS3/4A expression was induced with 0.5 mM Isopropyl β-D-1-thiogalactopyranoside (IPTG) for 22 hr at 20° C. […] The crude protein extract was loaded on a Nickel—Nitrilotriacetic acid (Ni-NTA) column pre-equilibrated with buffer B (25 mM HEPES, pH8.0, 20% glycerol, 500 mM NaCl, 0.5% Triton-X100, 15 mM imidazole, 5 mM βME). The sample was loaded at a flow rate of 1 mL/min. The column was washed with 15 column volumes of buffer C (same as buffer B except with 0.2% Triton-X100). The protein was eluted with 5 column volumes of buffer D (same as buffer C except with 200 mM Imidazole).
NS3/4A protease complex-containing fractions were pooled and loaded on a desalting column Superdex-S200 pre-equilibrated with buffer D (25 mM HEPES, pH7.5, 20% glycerol, 300 mM NaCl, 0.2% Triton-X100, 10 mM βME). Sample was loaded at a flow rate of 1 mL/min. NS3/4A protease complex-containing fractions were pooled and concentrated to approximately 0.5 mg/ml.
The enzyme was stored at −80° C., thawed on ice and diluted prior to use in assay buffer. […] The sequence of this peptide is loosely based on the NS4A/NS4B natural cleavage site except there is an ester linkage rather than an amide bond at the cleavage site. The peptide substrate was incubated with one of the three recombinant NS3/4A complexes, in the absence or presence of a compound of the present invention, and the formation of fluorescent reaction product was followed in real time using a Cytofluor Series 4000.
The reagents were as follow: HEPES and Glycerol (Ultrapure) were obtained from GIBCO-BRL. Dimethyl Sulfoxide (DMSO) was obtained from Sigma. β-Mercaptoethanol was obtained from Bio Rad.
Substrate: 2 μM final concentration (from a 2 mM stock solution in DMSO stored at −20° C.). HCV NS3/4A type 1a (1b), 2-3 nM final concentration (from a 5 μM stock solution in 25 mM HEPES, pH7.5, 20% glycerol, 300 mM NaCl, 0.2% Triton-X100, 10 mM βME).
The assay was performed in a 96-well polystyrene black plate from Falcon. Each well contained 25 μl NS3/4A protease complex in assay buffer, 50 μof a compound of the present invention in 10% DMSO/assay buffer and 25 μl substrate in assay buffer. A control (no compound) was also prepared on the same assay plate. The enzyme complex was mixed with compound or control solution for 1 min before initiating the enzymatic reaction by the addition of substrate. The assay plate was read immediately using the Cytofluor Series 4000 (Perspective Biosystems). The instrument was set to read an […] at 25° C. Reactions were generally followed for approximately 15 minutes.
The percent inhibition was calculated with the following equation: 100−[(δFinh/δFcon)×100] where δF is the change in fluorescence over the linear range of the curve.
For the molecule `C=CC1CC1(NC(=O)[C@@H]1C[C@@H](Sc2ccc3ccccc3c2)CN1C(=O)[C@@H](NC(=O)OC(C)(C)C)C(C)(C)C)C(=O)NS(C)(=O)=O` (some centres unmarked) [Compound 452], the IC50 was 1000 to 10000 nM. On the same count and under the same terms, in the case of `C=CC1C[C@]1(NC(=O)[C@@H]1C[C@@H](COc2cncc(Br)c2)CN1C(=O)[C@@H](NC(=O)OC)C(C)(C)C)C(=O)NS(=O)(=O)C1CC1` (some centres unmarked) [Compound 346] it was 1000 to 10000 nM; in that of `C=CC1C[C@]1(NC(=O)[C@@H]1C[C@@H](COc2ccnc(-c3ccoc3)c2)CN1C(=O)[C@@H](NC(=O)OC)C(C)(C)C)C(=O)NS(=O)(=O)C1CC1` (some centres unmarked) [Compound 351], 1000 to 10000 nM.

With `C=CC1C[C@]1(NC(=O)[C@@H]1C[C@@H](COc2cccc(Br)n2)CN1C(=O)[C@@H](NC(=O)OC)C(C)(C)C)C(=O)NS(=O)(=O)C1CC1` (some centres unmarked) [Compound 352], the IC50 was in the range of 10000 to 100000 nM. On the same count and under the same terms, under `C=CC1CC1(NC(=O)[C@@H]1C[C@@H](Oc2ccnc(N3Cc4ccccc4C3)n2)CN1C(=O)[C@@H](NC(=O)OC)C(C)(C)C)C(=O)NS(=O)(=O)C1CC1` (some centres unmarked) [Compound 342] stands 1000 to 10000 nM; under `C=C[C@@H]1C[C@]1(NC(=O)C1C[C@@H](Oc2nc(C3CC3)nc3cc(OC)c(OC)cc23)CN1C(=O)[C@@H](N)C(C)(C)C)C(=O)NS(=O)(=O)C1CC1` (some centres unmarked) [Compound 49], 1000 to 10000 nM; under `C=C[C@@H]1C[C@]1(NC(=O)[C@@H]1C[C@@H](Oc2nccc3c(O)cccc23)CN1C(=O)[C@@H](NC(=O)OC(C)(C)C)C(C)(C)C)C(=O)NS(=O)(=O)C1CC1` [Compound 256], 10000 to 100000 nM. For the molecule `C=CC1CC1(NC(=O)[C@@H]1C[C@@H](Sc2cccc3ccccc23)CN1C(=O)[C@@H](NC(=O)OC(C)(C)C)C(C)(C)C)C(=O)NS(C)(=O)=O` (some centres unmarked) [Compound 451], the IC50 is 1000 to 10000 nM. Same read-out and setting: under `C=CC1C[C@]1(NC(=O)[C@@H]1C[C@@H](COc2ccnc3ccccc23)CN1C(=O)[C@@H](NC(=O)OC)C(C)(C)C)C(=O)NS(=O)(=O)C1CC1` (some centres unmarked) [Compound 344] stands 100 to 1000 nM. Still for that read-out and setting: in the case of `C=CC1C[C@]1(NC(=O)[C@@H]1C[C@@H](COc2ccnc(-c3ccsc3)c2)CN1C(=O)[C@@H](NC(=O)OC)C(C)(C)C)C(=O)NS(=O)(=O)C1CC1` (some centres unmarked) [Compound 349] it was 1000 to 10000 nM; in that of `C=C[C@@H]1C[C@]1(NC(=O)[C@@H]1C[C@@H](Oc2cccc3ccccc23)CN1C(=O)[C@@H](NC(=O)OC(C)(C)C)C(C)(C)C)C(=O)NS(C)(=O)=O` [Compound 470], 100 to 1000 nM. The same measure, in the same setting: under `C=CC1CC1(NC(=O)[C@@H]1C[C@@H](Oc2cncc(Br)c2)CN1C(=O)[C@@H](NC(=O)OC(C)(C)C)C(C)(C)C)C(=O)NS(=O)(=O)C1CC1` (some centres unmarked) [Compound 423] stands 100 to 1000 nM; under `C=CC1C[C@]1(NC(=O)[C@@H]1C[C@@H](Oc2nc(-c3cnc(N(C)C)s3)cc3cc(OC)ccc23)CN1C(=O)[C@@H](NC(=O)OC(C)(C)C)C(C)(C)C)C(=O)NS(=O)(=O)C1CC1` (some centres unmarked) [Compound 331], less than 100 nM. For `C=CC1C[C@]1(NC(=O)[C@@H]1C[C@@H](COc2ccnc(Br)c2)CN1C(=O)[C@@H](NC(=O)OC)C(C)(C)C)C(=O)NS(=O)(=O)C1CC1` (some centres unmarked) [Compound 348], the IC50 lay in the range of 10000 to 100000 nM. Same read-out and setting: under `C=CC1C[C@]1(NC(=O)[C@@H]1C[C@@H](Oc2nc(Cl)c(OC)c3ccccc23)CN1C(=O)[C@@H](NC(=O)OC(C)(C)C)C(C)(C)C)C(=O)NS(=O)(=O)C1CC1` (stereo partly drawn) [Compound 245, BOCNH-P3(L-t-BuGly)-P2[(4R)-(3-chloro-4-methoxyisoquinoline-1-oxo)-S-proline]-P1(1R,2S VinylAcca)-CONHSO2Cyclopropane] stands 100 to 1000 nM; under `C=CC1C[C@]1(NC(=O)[C@@H]1C[C@@H](COc2cccc(-c3ccccc3)n2)CN1C(=O)[C@@H](NC(=O)OC)C(C)(C)C)C(=O)NS(=O)(=O)C1CC1` (some centres unmarked) [Compound 354], 1000 to 10000 nM.

Staying with this experiment, now noted: read-out: IC50 range; NS3/4A BMS strain.
Turning to `C=CC1CC1(NC(=O)C1CC(Oc2nccc3cc(OC)ccc23)CN1C(=O)C(NC)C(C)CC)C(=O)NS(=O)(=O)C1CC1` (centres unmarked) [Compound 99], the IC50 fell in the range of 1000 to 10000 nM.
